Reference: patent publication US20230346827A1 (priority 2020, published 2023)

What was measured:
[1] = test system: Human umbilical vein endothelial cells (HUVECs); assay: Gene expression array and pathway analysis, HUVECs, LMW-DS 0.01 mg/ml 48 h; type: cell-based; conditions: for number of genes: abolished nutrient effect / number of genes: total / number of genes: enhanced response to nutrients / number of genes: not different from control / Activation z-score / Predicted activation state relative D2 control: HUVECs; for Activation z-score / Predicted activation state relative D2 control: D2 LMW-DS treatment
Experimental: For each cell line, n=8 × 25 cm^2 culture flasks were set up. Two flasks were harvested for each cell type on the day of treatment (24 hours after seeding). This represents the Day0 time point. From the remaining flasks, three flasks were treated with Control Medium and three were treated with Culture Medium (CM) containing LMW-DS to give a final concentration of 0.01 mg/ml. Cells from the treated flasks were collected after 48 hours. Therefore the collected data represent (a) untreated cells (Day0 Controls and Day2 Controls) and (b) cells treated with LMW-DS (ILB®, Tikomed AB, Viken, Sweden, WO 2016/076780) for 48 hours (Day2 LMW-DS treated).
Medium 200 + Large Vessel Endothelial Supplement (M200+LVES) additive (1:50) was prepared and pre-warmed to 37° C. Cells were thawed in a 37° C. water bath for no longer than 2 min and gently transferred into a 50 ml tube containing 20 ml Dulbecco’s Modified Eagle Medium, Nutrient Mixture F-12 (DMEM-F12). The cell suspension was mixed by inverting the tube carefully twice. Cells were spun at 400 × g for 10 minutes. Supernatant removed and cells were re-suspended in 10 ml of culture media (M200+LVES additive).
Cells were counted with the Cellometer. 1,000,000 cells/flask were seeded in 25 cm^2 flasks (n=8) and medium was topped up to a total of 5 ml per flask. Cells were incubated at 37° C. with 5% CO2. Cells were allowed to settle for 24 hours before LMW-DS treatment.
LMW-DS was provided at a stock concentration of 20 mg/ml and was kept in a temperature monitored refrigerator at 4° C. A fresh 100x LMW-DS stock (1.0 mg/ml) was prepared in sterile DMEM-F12. The concentrated drug stock was sterile filtered and added to the respective culture media (19.6 ml CM and 0.4 ml LMW-DS stock solution). The Control was made using 19.6 ml CM and 0.4 ml of DMEM-F12. LMW-DS and CM were added to the respective flasks (5 ml each) to reach the 0.01 mg/ml concentration of LMW-DS in each dish with a total of 10 ml CM each.
CM was aspirated into a clean and labelled 15 ml Falcon tube. The flasks (without culture medium) were placed into the -80° C. freezer for 30 minutes. The CM in the Falcon tubes was spun at 3000 x g for 5 minutes. Supernatant was removed and the small pellet was re-suspended in 2.5 ml Trizol:Water (4:1) solution at room temperature (RT, ~22° C.).
Two aliquots of 1 ml lysate were removed from each sample and 200 µl of chloroform was added to each (0.2 ml of chloroform per 1 ml of TRIzol Reagent used during the cell lysis step) and the tube was shaken vigorously. Samples were stored at RT for 2-3 minutes and subsequently centrifuged at 12,000 x g for 15 minutes at 4° C.
The RNA was precipitated from the aqueous phase by adding an equal amount of 100% ethanol. The precipitated RNA was fixed onto a Spin Cartridge, washed twice and dried. The RNA was eluted in 50 µl warm RNase-Free Water. The amount and quality of the purified RNA was measured by Nanodrop. The RNA was stored at -80° C. before transfer to Source Bioscience for Array analysis.
The expression data were downloaded into separate files for each cell line. The ‘Background corrected’ expression is the data from the “gProcessedSignal” of the arrays that is the result of the background signal extracted from the actual signal of the relevant probe. This is the most often used variable in array analysis. The background corrected signal was log2 transformed for all samples for statistical analysis. To reduce the false discovery rate in the samples, the signals that were below ‘expression level’ were removed. The ‘below expression’ level was set at 5 for the log2 transformed expression values.
Based on the expression pattern of the Control probes on each array it was decided to carry out Median Centering for all arrays before analysis to reduce the variability of the results. […]

SARS-CoV-2 = conditions: incubation of SARS-CoV-2 with exogenous LMW-DS; cited from earlier work

Substance: sodium salt of dextran sulfate [LMW-DS]
- genes regulating cell attachment (of 197) differentially regulated [1]: none
- number of differentially expressed genes ([1]; D0 control to D2 LMW-DS treated): 1779
- number of differentially expressed genes ([1]; D2 control to D2 LMW-DS treated): 76
- number of genes: abolished nutrient effect ([1]; no effect): 67
- number of genes: total ([1]; no effect): 67
- number of genes: abolished nutrient effect ([1]; significant downregulation): 4
- number of genes: enhanced response to nutrients ([1]; significant downregulation): 120
- number of genes: not different from control ([1]; significant downregulation): 167
- number of genes: total ([1]; significant downregulation): 291
- number of genes: abolished nutrient effect ([1]; significant upregulation): 11
- number of genes: enhanced response to nutrients ([1]; significant upregulation): 229
- number of genes: not different from control ([1]; significant upregulation): 1326
- number of genes: total ([1]; significant upregulation): 1566
- number of genes: abolished nutrient effect ([1]; total): 82
- number of genes: enhanced response to nutrients ([1]; total): 349
- number of genes: not different from control ([1]; total): 1493
- number of genes: total ([1]; total): 1924
- modulation of the effects of oxidative stress on mitochondria ([1]; pathway analysis of gene expression): no significant modulation
- genes altered in Control cultures with no changes in LMW-DS treated cultures ([1]; two days): 67
- genes downregulated by growth factors, downregulation stronger with LMW-DS ([1]; two days): 120
- genes downregulated in control cultures, upregulated in LMW-DS treated cultures ([1]; two days): 11
- genes increased in control cultures, downregulated in LMW-DS treated cultures ([1]; two days): 4
- genes upregulated in Control cultures, upregulation stronger with LMW-DS ([1]; two days): 229
- Activation z-score ([1]; upstream regulator HGF): 3.194
- Predicted activation state relative D2 control ([1]; upstream regulator HGF): Activated relative to control
- Activation z-score ([1]; upstream regulator TGFβ1): 1.429
- Predicted activation state relative D2 control ([1]; upstream regulator TGFβ1): Activated relative to control
- Activation z-score ([1]; upstream regulator VEGF): 3.432
- Predicted activation state relative D2 control ([1]; upstream regulator VEGF): Activated relative to control
- SARS-CoV-2 attachment to human epithelial cell lines (SARS-CoV-2): reduces attachment
